Reference: US7759366B2 (Sanofi-Aventis, priority 2006, dated 2010)

Biological target: hCB1R (Homo sapiens, UniProt P21554)
Sequence (P21554 whole entry): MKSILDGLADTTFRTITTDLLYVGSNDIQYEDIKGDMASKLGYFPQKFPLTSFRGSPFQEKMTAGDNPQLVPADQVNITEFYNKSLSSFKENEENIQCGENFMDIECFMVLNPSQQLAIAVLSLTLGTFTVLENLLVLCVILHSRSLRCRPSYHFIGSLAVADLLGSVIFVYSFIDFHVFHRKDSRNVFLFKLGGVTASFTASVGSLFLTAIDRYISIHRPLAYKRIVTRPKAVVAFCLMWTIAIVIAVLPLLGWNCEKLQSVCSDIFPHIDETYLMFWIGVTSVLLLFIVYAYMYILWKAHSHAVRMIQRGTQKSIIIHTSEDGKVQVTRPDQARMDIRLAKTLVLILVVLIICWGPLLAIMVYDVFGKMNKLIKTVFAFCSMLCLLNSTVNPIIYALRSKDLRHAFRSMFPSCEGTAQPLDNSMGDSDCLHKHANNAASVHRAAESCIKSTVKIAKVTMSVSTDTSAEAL
Test: In vitro functional assay (FLIPR, intracellular Ca2+) with recombinant HEK293 cells, CB1
Type: cell-based
Design: expressed in transfected cells; host or cells: HEK293
Details: recombinant HEK293 cells expressing CB1 and Galpha16; 20 min preincubation, then reference agonist; Ca2+ change; read-out: hCB1R: FLIPR; IC50
Description: In Vitro Functional Assays with Recombinant Cells:

Structure (SMILES) | IC50
CC(C)(C)Oc1ncc(Nc2ccccc2CN2C(=O)N(c3ccc(C#N)c(C(F)(F)F)c3)C(=O)C2(C)C)c(OC(C)(C)C)n1 [Example 208, 4-{3-[2-(2,4-di-tert-butoxypyrimidin-5-ylamino)benzyl]-4,4-dimethyl-2,5-dioxoimidazolidin-1-yl}-2-trifluoromethylbenzonitrile] | 13 nM
CC1(C)C(=O)N(c2ccc(C#N)c(C(F)(F)F)c2)C(=O)N1Cc1ccccc1Nc1ccc(Cl)cc1 [Example 4, 4-{3-[2-(4-chlorophenylamino)benzyl]-4,4-dimethyl-2,5-dioxoimidazolidin-1-yl}-2-trifluoromethylbenzonitrile] | 4 nM
CC1(C)C(=O)N(c2ccc(C#N)c(C(F)(F)F)c2)C(=O)N1Cc1ccccc1Nc1ccc(C(=O)O)cc1F [Example 80, 4-{2-[3-(4-cyano-3-trifluoromethylphenyl)-5,5-dimethyl-2,4-dioxoimidazolidin-1-ylmethyl]phenylamino}-3-fluorobenzoic acid] | 33 nM
COC(=O)CNc1ccc(Nc2ccccc2CN2C(=O)N(c3ccc(C#N)c(C(F)(F)F)c3)C(=O)C2(C)C)cc1 [Example 177, Methyl (4-{2-[3-(4-cyano-3-trifluoromethylphenyl)-5,5-dimethyl-2,4-dioxoimidazolidin-1-ylmethyl]phenylamino}phenylamino)acetate] | 1 nM
CC1(C)C(=O)N(c2ccc(C#N)c(C3CC3)c2)C(=O)N1Cc1ccc(F)cc1Nc1ccc(C(=O)O)cc1 [Example 159, 4-{2-[3-(4-cyano-3-cyclopropylphenyl)-5,5-dimethyl-2,4-dioxoimidazolidin-1-ylmethyl]-5-fluorophenylamino}benzoic acid] | 2 nM
CC1(C)C(=O)N(c2ccc(C#N)c(C(F)(F)F)c2)C(=O)N1Cc1cc(Cl)cc(Cl)c1Nc1ccc(F)cc1F [Example 39, 4-{3-[3,5-dichloro-6-(2,4-difluorophenylamino)benzyl]-4,4-dimethyl-2,5-dioxoimidazolidin-1-yl}-2-trifluoromethylbenzonitrile] | 69 nM
Cc1cnccc1Nc1ccccc1CN1C(=O)N(c2ccc(C#N)c(C(F)(F)F)c2)C(=O)C1(C)C [Example 181, 4-{4,4-dimethyl-3-[2-(3-methylpyridin-4-ylamino)benzyl]-2,5-dioxoimidazolidin-1-yl}-2-trifluoromethylbenzonitrile] | 8 nM
CC1(C)C(=O)N(c2ccc(F)c(C(F)(F)F)c2)C(=O)N1Cc1ccc(F)cc1Nc1ccc2c(c1)CCC2=O [Example 206, 1-[4-fluoro-2-(1-oxoindan-5-ylamino)benzyl]-3-(4-fluoro-3-trifluoromethylphenyl)-5,5-dimethylimidazolidine-2,4-dione] | 24 nM
COC(=O)C1=C[C@@H](OC(C)=O)[C@H](OC(C)=O)[C@@H](Oc2ccc(Nc3ccccc3CN3C(=O)N(c4ccc(C#N)c(C(F)(F)F)c4)C(=O)C3(C)C)cc2)O1 [Example 197, methyl (4R,5S,6S)-4,5-diacetoxy-6-(4-{2-[3-(4-cyano-3-trifluoromethylphenyl)-5,5-dimethyl-2,4-dioxoimidazolidin-1-ylmethyl]phenylamino}phenoxy)-5,6-dihydro-4H-pyran-2-carboxylate] | 19 nM
CC1(C)C(=O)N(c2ccc(C#N)c(C(F)(F)F)c2)C(=O)N1Cc1ccccc1Nc1ccc(S(C)(=O)=O)cc1Cl [Example 14, 4-{3-[2-(2-chloro-4-methylsulfonylphenylamino)benzyl]-4,4-dimethyl-2,5-dioxoimidazolidin-1-yl}-2-trifluoromethylbenzonitrile] | 108 nM
CC1(C)C(=O)N(c2ccc(C#N)c(C(F)(F)F)c2)C(=O)N1Cc1ccc(Cl)cc1Nc1ccc(C(=O)O)cc1 [Example 131, 4-{5-chloro-2-[3-(4-cyano-3-trifluoromethylphenyl)-5,5-dimethyl-2,4-dioxoimidazolidin-1-ylmethyl]phenylamino}benzoic acid] | 15 nM
CC(C)(C)c1cc(N2C(=O)N(Cc3ccc(F)cc3Nc3ccc(C(=O)O)cc3)C(C)(C)C2=O)ccc1C#N [Example 169, 4-{2-[3-(3-tert-butyl-4-cyanophenyl)-5,5-dimethyl-2,4-dioxoimidazolidin-1-ylmethyl]-5-fluorophenylamino}benzoic acid] | 9 nM
CC1(C)C(=O)N(c2ccc(C#N)c(C(F)(F)F)c2)C(=O)N1Cc1c(Cl)cc(Cl)cc1Nc1ccc(F)cc1 [Example 35, 4-{3-[2,4-Dichloro-6-(4-fluorophenylamino)benzyl]-4,4-dimethyl-2,5-dioxoimidazolidin-1-yl}-2-trifluoromethylbenzonitrile] | 15 nM
CC1(C)C(=O)N(c2ccc(F)c(C(F)(F)F)c2)C(=O)N1Cc1ccc(F)cc1Nc1ccc(NS(C)(=O)=O)cc1 [Example 240, N-(4-{5-Fluoro-2-[3-(4-fluoro-3-trifluoromethylphenyl)-5,5-dimethyl-2,4-dioxoimidazolidin-1-ylmethyl]phenylamino}phenyl)methanesulfonamide] | 11 nM
CC1(C)C(=O)N(c2ccc(C#N)c(C(F)(F)F)c2)C(=O)N1Cc1cc(Cl)cc(Cl)c1Nc1ccc(Cl)cc1 [Example 40, 4-{3-[3,5-dichloro-6-(4-chlorophenylamino)benzyl]-4,4-dimethyl-2,5-dioxoimidazolidin-1-yl}-2-trifluoromethylbenzonitrile] | 30 nM
COC(=O)c1ccc(Nc2cc(C(F)(F)F)ccc2CN2C(=O)N(c3ccc(C#N)c(C(F)(F)F)c3)C(=O)C2(C)C)cc1 [Example 106, methyl 4-{2-[3-(4-cyano-3-trifluoromethylphenyl)-5,5-dimethyl-2,4-dioxoimidazolidin-1-ylmethyl]-5-trifluoromethylphenylamino}benzoate] | 12 nM
CC1(C)C(=O)N(c2ccc(C#N)c(C(F)(F)F)c2)C(=O)N1Cc1ccccc1Nc1ccc(N)c(F)c1 [Example 95, 4-{3-[2-(4-Amino-3-fluorophenylamino)benzyl]-4,4-dimethyl-2,5-dioxoimidazolidin-1-yl}-2-trifluoromethylbenzonitrile] | 31 nM
CC1(C)C(=O)N(c2ccc(C#N)c(C(F)(F)F)c2)C(=O)N1Cc1ccc(F)cc1Nc1ccc(C(=O)O)cc1 [Example 133, 4-{2-[3-(4-cyano-3-trifluoromethylphenyl)-5,5-dimethyl-2,4-dioxoimidazolidin-1-ylmethyl]-5-fluorophenylamino}benzoic acid] | 10 nM
CC1(C)C(=O)N(c2ccc(C#N)c(C(F)(F)F)c2)C(=O)N1Cc1ccccc1Nc1ccc(C#N)c(C(F)(F)F)c1 [Example 3, 4-{3-[2-(4-cyano-3-trifluoromethylphenylamino)benzyl]-4,4-dimethyl-2,5-dioxoimidazolidin-1-yl}-2-trifluoromethylbenzonitrile] | 22 nM
CC1(C)C(=O)N(c2ccc(C#N)c(C(F)(F)F)c2)C(=O)N1Cc1ccccc1Nc1ccc(Cl)c(Cl)c1 [Example 20, 4-{3-[2-(3,4-dichlorophenylamino)benzyl]-4,4-dimethyl-2,5-dioxoimidazolidin-1-yl}-2-trifluoromethylbenzonitrile] | 21 nM
COC(=O)c1ccc(Nc2cc(Cl)cc(Cl)c2CN2C(=O)N(c3ccc(C#N)c(C(F)(F)F)c3)C(=O)C2(C)C)cc1 [Example 104, methyl 4-{3,5-dichloro-2-[3-(4-cyano-3-trifluoromethylphenyl)-5,5-dimethyl-2,4-dioxoimidazolidin-1-ylmethyl]phenylamino}benzoate] | 15 nM
